# In PubChem BioAssay (NCI):
#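 The concentration for 50% growth inhibition is given as GI50. TGI marks complete inhibition of growth.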
# Experiments:
# Assay in all cases: NCI tumour cell line growth inhibition, 384-well format
# UACC-257 melanoma = test system: UACC-257 melanoma
# U251 glioblastoma = test system: U251 glioblastoma
# HCC-2998 colon = test system: HCC-2998 colon
# M14 melanoma = test system: M14 melanoma
# SK-MEL-2 melanoma = test system: SK-MEL-2 melanoma
# MCF7 breast = test system: MCF7 breast
# KM12 colon = test system: KM12 colon
# ACHN renal = test system: ACHN renal
# OVCAR-5 ovarian = test system: OVCAR-5 ovarian
# SR leukemia = test system: SR leukemia
# MOLT-4 leukemia = test system: MOLT-4 leukemia
# RPMI-8226 leukemia = test system: RPMI-8226 leukemia
# LOX IMVI melanoma = test system: LOX IMVI melanoma
# HL-60(TB) leukemia = test system: HL-60(TB) leukemia
# SW-620 colon = test system: SW-620 colon
# A549 NSCLC = test system: A549 NSCLC
# HCT-116 colon = test system: HCT-116 colon
# HOP-92 NSCLC = test system: HOP-92 NSCLC
# OVCAR-8 ovarian = test system: OVCAR-8 ovarian
# T-47D breast = test system: T-47D breast
# OVCAR-4 ovarian = test system: OVCAR-4 ovarian
# IGROV1 ovarian = test system: IGROV1 ovarian
# CAKI-1 renal = test system: CAKI-1 renal
# NCI-H460 NSCLC = test system: NCI-H460 NSCLC
# K-562 leukemia = test system: K-562 leukemia
# HCT-15 colon = test system: HCT-15 colon
# UO-31 renal = test system: UO-31 renal
# RXF 393 renal = test system: RXF 393 renal
# 786-0 renal = test system: 786-0 renal
# NCI/ADR-RES ovarian = test system: NCI/ADR-RES ovarian
# DU-145 prostate = test system: DU-145 prostate
# NCI-H23 lung = test system: NCI-H23 lung
# SF-295 CNS = test system: SF-295 CNS
# NCI-H322M lung = test system: NCI-H322M lung
# SN12C renal = test system: SN12C renal
# SK-OV-3 ovarian = test system: SK-OV-3 ovarian
# SNB-19 CNS = test system: SNB-19 CNS
# OVCAR-3 ovarian = test system: OVCAR-3 ovarian
# PC-3 prostate = test system: PC-3 prostate
# HOP-62 NSCLC = test system: HOP-62 NSCLC
# MDA-MB-231 breast = test system: MDA-MB-231 breast
# HT29 colon = test system: HT29 colon
# NCI-H522 lung = test system: NCI-H522 lung
# MDA-MB-435 melanoma = test system: MDA-MB-435 melanoma
# SF-539 CNS = test system: SF-539 CNS
# COLO 205 colon = test system: COLO 205 colon
# A498 renal = test system: A498 renal
# MDA-MB-468 breast = test system: MDA-MB-468 breast
# NCI-H226 lung = test system: NCI-H226 lung
# UACC-62 melanoma = test system: UACC-62 melanoma
# BT-549 breast = test system: BT-549 breast
# SF-268 CNS = test system: SF-268 CNS
# SK-MEL-28 melanoma = test system: SK-MEL-28 melanoma
# SK-MEL-5 melanoma = test system: SK-MEL-5 melanoma
# TK-10 renal = test system: TK-10 renal
# CCRF-CEM leukemia = test system: CCRF-CEM leukemia
smiles,measurement,setting,value
CNC(C)C(=O)N[C@H](C(=O)N1CCC[C@@H]1CN(CCc1ccccc1)C(=O)C(F)(F)F)[C@H](C)OCC#CC#CCO[C@H](C)[C@H](NC(=O)[C@H](C)NC)C(=O)N1CCC[C@H]1CN(CCc1ccccc1)C(=O)C(F)(F)F (some centres not stated),GI50,UACC-257 melanoma,1600 nM
same,TGI,UACC-257 melanoma,2960 nM
same,GI50,U251 glioblastoma,1710 nM
same,TGI,U251 glioblastoma,3100 nM
same,GI50,HCC-2998 colon,1310 nM
same,TGI,HCC-2998 colon,2620 nM
same,GI50,M14 melanoma,1800 nM
same,TGI,M14 melanoma,3210 nM
same,GI50,SK-MEL-2 melanoma,< 10 nM
same,TGI,SK-MEL-2 melanoma,< 10 nM
same,GI50,MCF7 breast,1300 nM
same,TGI,MCF7 breast,2590 nM
same,GI50,KM12 colon,1720 nM
same,TGI,KM12 colon,3130 nM
same,GI50,ACHN renal,> 100000 nM
same,TGI,ACHN renal,> 100000 nM
same,GI50,OVCAR-5 ovarian,58900 nM
same,TGI,OVCAR-5 ovarian,> 100000 nM
same,GI50,SR leukemia,342 nM
same,TGI,SR leukemia,1960 nM
same,GI50,MOLT-4 leukemia,1630 nM
same,TGI,MOLT-4 leukemia,2990 nM
same,GI50,RPMI-8226 leukemia,617 nM
same,TGI,RPMI-8226 leukemia,1940 nM
same,GI50,LOX IMVI melanoma,2060 nM
same,TGI,LOX IMVI melanoma,3510 nM
same,GI50,HL-60(TB) leukemia,< 10 nM
same,TGI,HL-60(TB) leukemia,< 10 nM
same,GI50,SW-620 colon,1820 nM
same,TGI,SW-620 colon,3240 nM
same,GI50,A549 NSCLC,3320 nM
same,TGI,A549 NSCLC,17200 nM
same,GI50,HCT-116 colon,1920 nM
same,TGI,HCT-116 colon,3350 nM
same,GI50,HOP-92 NSCLC,310 nM
same,TGI,HOP-92 NSCLC,1780 nM
same,GI50,OVCAR-8 ovarian,1050 nM
same,TGI,OVCAR-8 ovarian,2240 nM
same,GI50,T-47D breast,1600 nM
same,TGI,T-47D breast,2960 nM
same,GI50,OVCAR-4 ovarian,< 10 nM
same,TGI,OVCAR-4 ovarian,< 10 nM
same,GI50,IGROV1 ovarian,5720 nM
same,TGI,IGROV1 ovarian,83400 nM
same,GI50,CAKI-1 renal,6020 nM
same,TGI,CAKI-1 renal,17700 nM
same,GI50,NCI-H460 NSCLC,1680 nM
same,TGI,NCI-H460 NSCLC,3070 nM
same,GI50,K-562 leukemia,1810 nM
same,TGI,K-562 leukemia,3230 nM
same,GI50,HCT-15 colon,21300 nM
same,TGI,HCT-15 colon,> 100000 nM
same,GI50,UO-31 renal,> 100000 nM
same,TGI,UO-31 renal,> 100000 nM
same,GI50,RXF 393 renal,< 10 nM
same,TGI,RXF 393 renal,62.5 nM
same,GI50,786-0 renal,1760 nM
same,TGI,786-0 renal,3160 nM
same,GI50,NCI/ADR-RES ovarian,> 100000 nM
same,TGI,NCI/ADR-RES ovarian,> 100000 nM
same,GI50,DU-145 prostate,1740 nM
same,TGI,DU-145 prostate,5180 nM
same,GI50,NCI-H23 lung,268 nM
same,TGI,NCI-H23 lung,7590 nM
same,GI50,SF-295 CNS,2650 nM
same,TGI,SF-295 CNS,14500 nM
same,GI50,NCI-H322M lung,5600 nM
same,TGI,NCI-H322M lung,22700 nM
same,GI50,SN12C renal,2340 nM
same,TGI,SN12C renal,4060 nM
same,GI50,SK-OV-3 ovarian,< 10 nM
same,TGI,SK-OV-3 ovarian,71.9 nM
same,GI50,SNB-19 CNS,6770 nM
same,TGI,SNB-19 CNS,21400 nM
same,GI50,OVCAR-3 ovarian,1250 nM
same,TGI,OVCAR-3 ovarian,2550 nM
same,GI50,PC-3 prostate,4080 nM
same,TGI,PC-3 prostate,13400 nM
same,GI50,HOP-62 NSCLC,906 nM
same,TGI,HOP-62 NSCLC,2190 nM
same,GI50,MDA-MB-231 breast,< 10 nM
same,TGI,MDA-MB-231 breast,< 10 nM
same,GI50,HT29 colon,1690 nM
same,TGI,HT29 colon,3100 nM
same,GI50,NCI-H522 lung,906 nM
same,TGI,NCI-H522 lung,2150 nM
same,GI50,MDA-MB-435 melanoma,98.1 nM
same,TGI,MDA-MB-435 melanoma,1940 nM
same,GI50,SF-539 CNS,1540 nM
same,TGI,SF-539 CNS,2880 nM
same,GI50,COLO 205 colon,1690 nM
same,TGI,COLO 205 colon,3080 nM
same,GI50,A498 renal,2070 nM
same,TGI,A498 renal,4560 nM
same,GI50,MDA-MB-468 breast,< 10 nM
same,TGI,MDA-MB-468 breast,78.5 nM
same,GI50,NCI-H226 lung,3390 nM
same,TGI,NCI-H226 lung,16700 nM
same,GI50,UACC-62 melanoma,1730 nM
same,TGI,UACC-62 melanoma,3120 nM
same,GI50,BT-549 breast,< 10 nM
same,TGI,BT-549 breast,2160 nM
same,GI50,SF-268 CNS,1740 nM
same,TGI,SF-268 CNS,3130 nM
same,GI50,SK-MEL-28 melanoma,1450 nM
same,TGI,SK-MEL-28 melanoma,2780 nM
same,GI50,SK-MEL-5 melanoma,149 nM
same,TGI,SK-MEL-5 melanoma,730 nM
same,GI50,TK-10 renal,2520 nM
same,TGI,TK-10 renal,5600 nM
same,GI50,CCRF-CEM leukemia,25.3 nM
same,TGI,CCRF-CEM leukemia,1430 nM
